Test results published in patent US12404232B2, “Compounds and compositions for intracellular delivery of therapeutic agents” (ModernaTX, Inc., priority 2015, dated 2025).

What was measured:
rats [1] = experiment: hEPO expression in rats after intravenous administration; type: in vivo, rat; details: for hEPO expression: rat
Procedure: (§1) The expression of hEPO and cytokine induction in rats intravenously administered a nanoparticle composition at a dose of 2.0 mpk was measured at 6 h.
The expression of hEPO in rats intravenously administered a nanoparticle composition at a dose of 0.2 mpk or 2.0 mpk was measured at 6 hours. Table 16 summarize the ratio of hEPO expression levels using various nanoparticle compositions as compared to the hEPO expression level using MC3 formulation and the lipid levels in the liver measured 48 hours after administration, as described above. Tables 17 and 18 summarize the lipid levels in the liver and spleen measured 48 hours after administration of Compounds 28, 33, 53, and 54. Liver and spleen levels represent the average values calculated for 3 rats in each group. As is shown in Tables 17 and 18, less than 10% of Compounds 28, 33, 53, and 54 remained in the liver after 48 hours, while greater than 60% of MC3 remained.
(§2) Table 19 summarizes the hEPO expression, IP-10 induction, liver and spleen levels, and alanine aminotransferase (ALT) and aspartate aminotransferase (AST) measured upon intravenous administration of formulations including Compounds 48, 49, and 50 to rat at 0.2 and 2 mpk and hEPO mRNA. hEPO concentrations were measured 6 hours after administration, while cytokine induction and liver and spleen levels were measured 48 hours after administration. hEPO and IP-10 concentrations are presented in pg/ml, while liver levels are provided in ng/g. ALT and AST levels are presented in international units.
The expression of hEPO induced by intravenous administration to rats of nanoparticle compositions at various doses was measured at 2, 4, 6, 8, 24, and 48 hour time points. FIGS. 3-6 respectively summarize the hEPO expression measured upon intravenous administration of formulations including Compounds 26, 18, 25, and MC3 to rat at various doses. The lipid levels of Compound 26 in the liver after 48 hours were about 19%.
The expression of hEPO and lipid levels in the liver and spleen in rats intravenously administered a nanoparticle composition at a dose of 0.2 mpk was measured at various timepoints. Compounds 18 and 25 were selected for comparison with MC3. Lipids were formulated according to the standard MC3 formulation described above. Rats were administered intravenously a single 0.2 mpk dose and expression monitored at 0.25, 0.5, 1, 2, 4, 8, 24, and 48 hours after administration. […]

rats [2] = experiment: Cytokine induction (IP-10) in rats after intravenous administration; type: in vivo; details: rat, 6 hours after administration of hEPO nanoparticle compositions, 2.0 mpk
Procedure: as §1, §2

mice = experiment: Luc expression (total flux) after intramuscular administration; type: in vivo; details: 6 hours after intramuscular administration, Luc mRNA and H10 mRNA
rats [3] = experiment: Residual lipid levels in liver and spleen of rats (UPLC-MS quantification); type: in vivo, rat; details: for % Lipid Remaining in liver, 48 h* 2 mpk: assuming 300 g rat and 15 g liver; for Lipid level in liver / Lipid level in spleen: rat, i.v., 0.2 mpk

SMILES | hEPO expression (rats [1]; i.v., 0.2 mpk, 0.25 h) | hEPO expression (rats [1]; i.v., 0.2 mpk, 0.5 h) | hEPO expression (rats [1]; i.v., 0.2 mpk, 1 h) | hEPO expression (rats [1]; i.v., 0.2 mpk, 2 h) | hEPO expression (rats [1]; i.v., 0.2 mpk, 4 h) | hEPO expression (rats [1]; i.v., 0.2 mpk, 8 h) | hEPO expression (rats [1]; i.v., 0.2 mpk, 24 h) | hEPO expression (rats [1]; i.v., 0.2 mpk, 48 h) | IP-10 (rats [2]) | Total flux (p/s) 0.001 mpk Dose (mice) | Total flux (p/s) 0.01 mpk Dose (mice) | % Lipid Remaining in liver, 48 h* 2 mpk (rats [3]; rats, 48 h) | further results
CCCCCC=CCC=CCCCCCCCCC(CCCCCCCCC=CCC=CCCCCC)OC(=O)CCCN(C)C (stereo not shown) [MC3, heptatriaconta-6,9,28,31-tetraen-19-yl 4-(dimethylamino)butanoate, reference compound] | 0 pg/mL | 42457 pg/mL | 93720 pg/mL | 524093 pg/mL | 601307 pg/mL | 1536833 pg/mL | 703619 pg/mL | 64687 pg/mL | 688.3 pg/mL | 2.76E+06 p/s | 3.68E+07 p/s | 87% | hEPO expression (rats [1]; 6 h, 2 mpk, intravenous): 1.33e+07 pg/mL; Lipid/MC3 hEPO conc. ratio 0.2 mpk (rats [1]; rats, intravenous, 0.2 mpk, 6 hours): 1; Lipid/MC3 hEPO conc. ratio 2 mpk (rats [1]; rats, intravenous, 2 mpk, 6 hours): 1; remained in the liver after 48 hours (rats [3]; rats, intravenous, 48 hours): greater than 60%
CCCCCCCCCCCOC(=O)CCCCCN(CCO)CCCCCCCC(=O)OC(CCCCCCCC)CCCCCCCC [Compound 25, Heptadecan-9-yl 8-((2-hydroxyethyl)(6-oxo-6-(undecyloxy)hexyl)amino)octanoate] | 0 pg/mL | 19553 pg/mL | 434299 pg/mL | 2042807 pg/mL | 3176560 pg/mL | 2631633 pg/mL | 869374 pg/mL | 103089 pg/mL | 533.5 pg/mL | 3.53E+06 p/s | 9.96E+07 p/s | 1.32% | –
CCCCCCCCCOC(=O)CCCCCCCN(CCO)CCCCCCCC(=O)OC(CCCCCCCC)CCCCCCCC [Compound 18, Heptadecan-9-yl 8-((2-hydroxyethyl)(8-(nonyloxy)-8-oxooctyl)amino)octanoate] | 20227 pg/mL | 20743 pg/mL | 194353 pg/mL | 238107 pg/mL | 514807 pg/mL | 915320 pg/mL | 412051 pg/mL | 52361 pg/mL | 517.3 pg/mL | – | 8.84E+07 p/s | 0.018% | Lipid level in liver (rats [3]; 0.25 h): 5374 ng/g; Lipid level in spleen (rats [3]; 0.25 h): 1230 ng/g; Lipid level in liver (rats [3]; 0.5 h): 6023 ng/g; Lipid level in spleen (rats [3]; 0.5 h): 2017 ng/g; Lipid level in liver (rats [3]; 1 h): 6053 ng/g; Lipid level in spleen (rats [3]; 1 h): 3213 ng/g; Lipid level in liver (rats [3]; 2 h): 2037 ng/g; Lipid level in spleen (rats [3]; 2 h): 3070 ng/g; Lipid level in liver (rats [3]; 4 h): 839 ng/g; Lipid level in spleen (rats [3]; 4 h): 3770 ng/g; Lipid level in liver (rats [3]; 8 h): 296 ng/g; Lipid level in spleen (rats [3]; 8 h): 1345 ng/g; Lipid level in liver (rats [3]; 24 h): 5 ng/g; Lipid level in spleen (rats [3]; 24 h): 271 ng/g; Lipid level in liver (rats [3]; 48 h): 5374 ng/g; Lipid level in spleen (rats [3]; 48 h): 92 ng/g
